Our source for the inhibition and Activity values is ChEMBL document CHEMBL1156593, “Alkamides from the fruits of Piper longum and Piper nigrum displaying potent cell adhesion inhibition” (Bioorg Med Chem Lett, 2008).

Data set [1] has as its target Intercellular adhesion molecule 1 (Homo sapiens) (UniProt P05362). The data set is described as follows: Inhibition of sICAM1/LFA1 interaction-mediated human THP1 cell adhesion at 25 ug/mL after 1 hr by ELISA. As to conditions: THP-1. In general terms: In an ELISA, binding on a coated surface is turned into a signal by an enzyme label.
The target is the same in data set [2]. The data set is described as follows: Inhibition of sICAM1/LFA1 interaction-mediated human THP1 cell adhesion at 12.50 ug/mL after 1 hr by ELISA. Type of data set: cell-based. As to conditions: THP-1.
For data set [3] the target is unchanged. The data set is described as follows: Inhibition of sICAM1/LFA1 interaction-mediated human THP1 cell adhesion at 6.25 ug/mL after 1 hr by ELISA. It counts as cell-based. As to conditions: THP-1.
For data set [4] the target is unchanged. The data set is described as follows: Inhibition of sICAM1/LFA1 interaction-mediated human THP1 cell adhesion at 3.13 ug/mL after 1 hr by ELISA. It counts as cell-based. The note with it: THP-1.
For another data set, the system named is THP-1. The data set is described as follows: Cytotoxicity against human THP1 cells assessed as cell viability at 3.13 to 25.00 ug/mL by MTT assay. It counts as cell-based. For orientation: Formazan colour is commonly taken as a measure of viable cells.
The species entered for a further data set is Mus musculus. The data set is described as follows: Antiinflammatory activity in mouse. Type of data set: functional, organism-based.

The source made the active and inactive calls. No cut-off for these calls is given here.

Intercellular adhesion molecule 1 (Homo sapiens), sequence (P05362 whole entry): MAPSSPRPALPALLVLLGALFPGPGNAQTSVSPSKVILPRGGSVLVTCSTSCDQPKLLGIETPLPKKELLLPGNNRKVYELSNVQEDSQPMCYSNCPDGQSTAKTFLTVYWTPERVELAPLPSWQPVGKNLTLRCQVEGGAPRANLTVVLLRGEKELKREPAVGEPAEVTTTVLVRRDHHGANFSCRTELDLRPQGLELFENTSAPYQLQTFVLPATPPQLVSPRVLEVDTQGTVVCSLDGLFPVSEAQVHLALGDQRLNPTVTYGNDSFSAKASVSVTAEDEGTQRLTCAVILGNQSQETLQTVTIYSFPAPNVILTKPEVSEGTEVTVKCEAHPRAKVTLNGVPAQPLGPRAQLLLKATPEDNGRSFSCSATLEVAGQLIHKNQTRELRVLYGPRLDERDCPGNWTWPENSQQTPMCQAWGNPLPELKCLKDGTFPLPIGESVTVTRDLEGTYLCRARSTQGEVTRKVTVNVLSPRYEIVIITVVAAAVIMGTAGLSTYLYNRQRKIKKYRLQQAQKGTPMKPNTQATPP

By inhibition is commonly meant the share of the control response that was lost under treatment. For the molecule `O=C(/C=C/C=C\CC/C=C/c1ccc2c(c1)OCO2)N1CCCCC1`, the inhibition in data set [1] was found to be 92.1%; in data set [2], 58.4%; in data set [3], 13.1%. In addition, the outcome in data set [4] was inactive. The Activity result in the data set with THP-1 was “Non-toxic”. The outcome in the data set filed under Mus musculus was Active.
As for `CC[C@H](C)C(=O)O[C@H]1C[C@@H](C)C=C2C=C[C@H](C)[C@H](CC[C@@H]3C[C@@H](O)CC(=O)O3)[C@H]21`, the outcome in data set [1] and in data set [4] was inactive. Further, the inhibition in data set [2] worked out at 61.4%; in data set [3], 37.7%.
`O=C(/C=C/C=C/CC/C=C/c1ccc2c(c1)OCO2)N1CCCCC1` [DEHYDROPIPERNOLINE]: the inhibition in data set [1] was 73.4%; in data set [2] it was 57.7%; in data set [3], 52.5%; in data set [4] it was 30.1%. The Activity result with THP-1 is “Non-toxic”. Besides, the outcome in the data set listed under Mus musculus was Active.
For the molecule `CC(C)CNC(=O)/C=C/C=C/CCCCCC/C=C/c1ccc2c(c1)OCO2` [GUINEENSINE], the inhibition amounted to 36.8% in data set [1], 31.7% in data set [2] and 14.9% in data set [3]. For the same molecule, in data set [4], the outcome was inactive. Also, the Activity result with THP-1 is listed as “Non-toxic”. In addition, in the data set listed under Mus musculus, the outcome was Active.
Turning to `CCCCC/C=C/C=C/C(=O)NCC(C)C` [PELLITORIN], the inhibition was determined as 80.6% in data set [1], 46.4% in data set [2], 16.5% in data set [3] and 11.3% in data set [4]. The Activity result in the data set on THP-1 is recorded as “Non-toxic”. For the same molecule, the outcome in the data set listed under Mus musculus was Active.
Regarding `CC(C)CNC(=O)/C=C/CCCCCC/C=C/c1ccc2c(c1)OCO2` [PIPERCHABAMIDE D], the inhibition in data set [1] was 42.6%; in data set [2] it was 26.9%; in data set [3], 20.9%; in data set [4], 15.6%. In the data set on THP-1, the Activity entry was “Non-toxic”. Further, the outcome in the data set filed under Mus musculus was Active.
Consider `O=C(/C=C/CCCC/C=C/c1ccc2c(c1)OCO2)N1CCCCC1` [PIPERNONALINE], for which the inhibition in data set [1] worked out at 93.8%; in data set [2], 70.2%; in data set [3], 36.8%; in data set [4], 12.5%. Besides, the Activity entry in the data set with THP-1 is “Non-toxic”. Further, the result in the data set filed under Mus musculus was Active.
Regarding `O=C(CCCCCC/C=C/c1ccc2c(c1)OCO2)N1CCCCC1` [PIPERROLEIN B], the inhibition in data set [1] was 67.6%; in data set [2] it was 46.5%; in data set [3], 28.5%; in data set [4], 16.2%. The Activity entry in the data set with THP-1 is given as “Non-toxic”. The outcome in the data set listed under Mus musculus was Active.
`CC(C)CNC(=O)/C=C/CCCC/C=C/c1ccc2c(c1)OCO2` [RETROFRACTAMIDE C]: the inhibition in data set [1] came out at 36%; in data set [2], 35.9%; in data set [3], 29.9%. Also, in data set [4], the result was inactive. Also, the Activity entry in the data set with THP-1 is reported as “Non-toxic”. The result in the data set listed under Mus musculus was Active.
